Results from PMC9668928, “Zandelisib (ME-401) in Japanese patients with relapsed or refractory indolent non-Hodgkin’s lymphoma: an open-label, multicenter, dose-escalation phase 1 study” (International Journal of Hematology, 2022).

Test system: Japanese patients with R/R iNHL
Assay: Phase 1 dose-escalation study: safety and tolerability (TEAEs, DLTs)
Type: in vivo
Source text: Japanese patients aged ≥ 20 years with R/R iNHL histologically confirmed as FL, nodal MZL, extra-nodal MZL of mucosa-associated lymphoid tissue, small lymphocytic lymphoma, lymphoplasmacytic lymphoma, Waldenström’s macroglobulinemia, or equivalent, according to World Health Organization classification, were eligible for this study. Other key eligibility criteria included being PI3K inhibitor therapy-naïve and an Eastern Cooperative Oncology Group performance status of 0 or 1. Further details of inclusion and exclusion criteria are provided in Supplementary Table 1.
This was a multicenter, open-label, dose-escalation, phase 1 study in Japan. All patients received oral zandelisib once daily at the same time each day, at least 1 h before or 2 h after a meal (CS: continuous schedule). Each treatment cycle was 28 days. Definitions of the DLTs described in this study can be found in Supplementary Table 2. The observation period for DLTs was from day 1 of Cycle 1 to day 1 of Cycle 2. Zandelisib was administered until disease progression or unacceptable toxicity. In the event of an AE, patients could be switched to IDT. In the case of disease progression while receiving IDT, patients could be switched back to CS per the investigator’s discretion.
A starting dose of 45 mg was set for investigating patient safety. This study adopted a standard 3 + 3 design. […] If DLTs occurred in 2 or more patients, the study was planned to be suspended pending a safety evaluation. If a DLT occurred in 1 patient, 3 further patients were added to cohort 1. If DLTs occurred in 0/3 or 1/6 patients in cohort 1, dosing in cohort 2 commenced (n = 6; 60 mg/day). If the incidence of DLTs in cohort 2 was ≤ 1/6, the maximum tolerated dose was not determined, and the dose in cohort 2 was to be selected as the recommended Japanese phase 2 dose.
The primary endpoint was the safety [number of patients with treatment-emergent adverse events (TEAEs), based on Common Terminology Criteria for Adverse Events version 5.0] and tolerability (including laboratory values, vital signs, and electrocardiogram performance) of zandelisib in Japanese patients. Hepatobiliary disorder, aspartate/alanine (AST/ALT) increased, diarrhea/colitis, organizing pneumonia, stomatitis, or rash were defined as irAEs in this manuscript. Secondary endpoints included PK (plasma concentrations and PK parameters) and the efficacy of zandelisib. […] The PK parameters for Cycle 1 day 1 and Cycle 2 day 1 were calculated for each patient by non-compartmental analysis. PK parameters included maximum plasma drug concentration (Cmax), area under the plasma concentration–time curve (AUC) from time zero to the last measurable point (AUC0–t), the AUC from time zero to infinity (AUC0-inf), and terminal half-life (t1/2).

CN1CCC(c2ccccc2CC(C)(C)Nc2nc(N3CCOCC3)nc(-n3c(C(F)F)nc4ccccc43)n2)CC1 [zandelisib]
TEAE Oropharyngeal pain, Grade ≥ 3 (45 mg, n = 3): 0 n (%) | TEAE Pancreatitis, All grades (45 mg, n = 3): 1 (33.3) n (%) | TEAE Pancreatitis, Grade ≥ 3 (45 mg, n = 3): 1 (33.3) n (%) | TEAE Pharyngeal paresthesia, All grades (45 mg, n = 3): 0 n (%) | TEAE Pharyngeal paresthesia, Grade ≥ 3 (45 mg, n = 3): 0 n (%) | TEAE Pruritus, All grades (45 mg, n = 3): 0 n (%) | TEAE Pruritus, Grade ≥ 3 (45 mg, n = 3): 0 n (%) | TEAE Psychiatric disorders (SOC), All grades (45 mg, n = 3): 1 (33.3) n (%) | TEAE Psychiatric disorders (SOC), Grade ≥ 3 (45 mg, n = 3): 0 n (%) | TEAE Rash maculopapular, All grades (45 mg, n = 3): 1 (33.3) n (%) | TEAE Rash maculopapular, Grade ≥ 3 (45 mg, n = 3): 0 n (%) | TEAE Rash, All grades (45 mg, n = 3): 1 (33.3) n (%) | TEAE Rash, Grade ≥ 3 (45 mg, n = 3): 0 n (%) | TEAE Renal and urinary disorders (SOC), All grades (45 mg, n = 3): 1 (33.3) n (%) | TEAE Renal and urinary disorders (SOC), Grade ≥ 3 (45 mg, n = 3): 0 n (%) | TEAE Renal impairment, All grades (45 mg, n = 3): 1 (33.3) n (%) | TEAE Renal impairment, Grade ≥ 3 (45 mg, n = 3): 0 n (%) | TEAE Respiratory, thoracic, and mediastinal disorders (SOC), All grades (45 mg, n = 3): 1 (33.3) n (%) | TEAE Respiratory, thoracic, and mediastinal disorders (SOC), Grade ≥ 3 (45 mg, n = 3): 1 (33.3) n (%) | TEAE Skin and subcutaneous tissue disorders (SOC), All grades (45 mg, n = 3): 3 (100.0) n (%) | TEAE Skin and subcutaneous tissue disorders (SOC), Grade ≥ 3 (45 mg, n = 3): 0 n (%) | TEAE Stomatitis, All grades (45 mg, n = 3): 1 (33.3) n (%) | TEAE Stomatitis, Grade ≥ 3 (45 mg, n = 3): 1 (33.3) n (%) | TEAE Subcutaneous abscess, All grades (45 mg, n = 3): 0 n (%) | TEAE Subcutaneous abscess, Grade ≥ 3 (45 mg, n = 3): 0 n (%) | TEAE Tinnitus, All grades (45 mg, n = 3): 1 (33.3) n (%) | TEAE Tinnitus, Grade ≥ 3 (45 mg, n = 3): 0 n (%) | TEAE Urticaria, All grades (45 mg, n = 3): 1 (33.3) n (%) | TEAE Urticaria, Grade ≥ 3 (45 mg, n = 3): 0 n (%) | TEAE Vomiting, All grades (45 mg, n = 3): 0 n (%) | TEAE Vomiting, Grade ≥ 3 (45 mg, n = 3): 0 n (%) | TEAE WBC count decreased, All grades (45 mg, n = 3): 2 (66.7) n (%) | TEAE WBC count decreased, Grade ≥ 3 (45 mg, n = 3): 0 n (%) | Grade 3 irAEs (60 mg): 5 patients | TEAE ALT increased, All grades (60 mg, n = 6): 1 (16.7) n (%) | TEAE ALT increased, Grade ≥ 3 (60 mg, n = 6): 0 n (%) | TEAE AST increased, All grades (60 mg, n = 6): 3 (50.0) n (%) | TEAE AST increased, Grade ≥ 3 (60 mg, n = 6): 0 n (%) | TEAE Abdominal discomfort, All grades (60 mg, n = 6): 1 (16.7) n (%) | TEAE Abdominal discomfort, Grade ≥ 3 (60 mg, n = 6): 0 n (%) | TEAE Abdominal pain upper, All grades (60 mg, n = 6): 0 n (%) | TEAE Abdominal pain upper, Grade ≥ 3 (60 mg, n = 6): 0 n (%) | TEAE Amylase increased, All grades (60 mg, n = 6): 0 n (%) | TEAE Amylase increased, Grade ≥ 3 (60 mg, n = 6): 0 n (%) | TEAE Anemia, All grades (60 mg, n = 6): 0 n (%) | TEAE Anemia, Grade ≥ 3 (60 mg, n = 6): 0 n (%) | TEAE Arthralgia, All grades (60 mg, n = 6): 1 (16.7) n (%) | TEAE Arthralgia, Grade ≥ 3 (60 mg, n = 6): 0 n (%) | TEAE Back pain, All grades (60 mg, n = 6): 0 n (%) | TEAE Back pain, Grade ≥ 3 (60 mg, n = 6): 0 n (%) | TEAE Blepharitis, All grades (60 mg, n = 6): 1 (16.7) n (%) | TEAE Blepharitis, Grade ≥ 3 (60 mg, n = 6): 0 n (%) | TEAE Blood and lymphatic system disorders (SOC), All grades (60 mg, n = 6): 0 n (%) | TEAE Blood and lymphatic system disorders (SOC), Grade ≥ 3 (60 mg, n = 6): 0 n (%) | TEAE Blood creatinine increased, All grades (60 mg, n = 6): 1 (16.7) n (%) | TEAE Blood creatinine increased, Grade ≥ 3 (60 mg, n = 6): 0 n (%) | TEAE Bradycardia, All grades (60 mg, n = 6): 0 n (%) | TEAE Bradycardia, Grade ≥ 3 (60 mg, n = 6): 0 n (%) | TEAE CMV test positive, All grades (60 mg, n = 6): 2 (33.3) n (%) | TEAE CMV test positive, Grade ≥ 3 (60 mg, n = 6): 0 n (%) | TEAE Cardiac disorders (SOC), All grades (60 mg, n = 6): 0 n (%) | TEAE Cardiac disorders (SOC), Grade ≥ 3 (60 mg, n = 6): 0 n (%) | TEAE Conjunctivitis, All grades (60 mg, n = 6): 1 (16.7) n (%) | TEAE Conjunctivitis, Grade ≥ 3 (60 mg, n = 6): 0 n (%) | TEAE Constipation, All grades (60 mg, n = 6): 2 (33.3) n (%) | TEAE Constipation, Grade ≥ 3 (60 mg, n = 6): 0 n (%) | TEAE Cough, All grades (60 mg, n = 6): 1 (16.7) n (%) | TEAE Cough, Grade ≥ 3 (60 mg, n = 6): 0 n (%) | TEAE Decreased appetite, All grades (60 mg, n = 6): 0 n (%) | TEAE Decreased appetite, Grade ≥ 3 (60 mg, n = 6): 0 n (%) | TEAE Diarrhea, All grades (60 mg, n = 6): 2 (33.3) n (%) | TEAE Diarrhea, Grade ≥ 3 (60 mg, n = 6): 2 (33.3) n (%) | TEAE Drug hypersensitivity, All grades (60 mg, n = 6): 1 (16.7) n (%) | TEAE Drug hypersensitivity, Grade ≥ 3 (60 mg, n = 6): 0 n (%) | TEAE Drug-induced liver injury, All grades (60 mg, n = 6): 1 (16.7) n (%) | TEAE Drug-induced liver injury, Grade ≥ 3 (60 mg, n = 6): 1 (16.7) n (%) | TEAE Dry eye, All grades (60 mg, n = 6): 0 n (%) | TEAE Dry eye, Grade ≥ 3 (60 mg, n = 6): 0 n (%) | TEAE Dry skin, All grades (60 mg, n = 6): 1 (16.7) n (%) | TEAE Dry skin, Grade ≥ 3 (60 mg, n = 6): 0 n (%) | TEAE Dysgeusia, All grades (60 mg, n = 6): 0 n (%) | TEAE Dysgeusia, Grade ≥ 3 (60 mg, n = 6): 0 n (%) | TEAE Dyspnea, All grades (60 mg, n = 6): 0 n (%) | TEAE Dyspnea, Grade ≥ 3 (60 mg, n = 6): 0 n (%) | TEAE Ear and labyrinth disorders (SOC), All grades (60 mg, n = 6): 0 n (%) | TEAE Ear and labyrinth disorders (SOC), Grade ≥ 3 (60 mg, n = 6): 0 n (%) | TEAE Eczema, All grades (60 mg, n = 6): 1 (16.7) n (%) | TEAE Eczema, Grade ≥ 3 (60 mg, n = 6): 0 n (%) | TEAE Eosinophil count increased, All grades (60 mg, n = 6): 0 n (%) | TEAE Eosinophil count increased, Grade ≥ 3 (60 mg, n = 6): 0 n (%) | TEAE Erythema multiforme, All grades (60 mg, n = 6): 1 (16.7) n (%) | TEAE Erythema multiforme, Grade ≥ 3 (60 mg, n = 6): 0 n (%) | TEAE Eye disorders (SOC), All grades (60 mg, n = 6): 1 (16.7) n (%) | TEAE Eye disorders (SOC), Grade ≥ 3 (60 mg, n = 6): 0 n (%) | TEAE Flank pain, All grades (60 mg, n = 6): 1 (16.7) n (%) | TEAE Flank pain, Grade ≥ 3 (60 mg, n = 6): 0 n (%) | TEAE GGT increased, All grades (60 mg, n = 6): 1 (16.7) n (%) | TEAE GGT increased, Grade ≥ 3 (60 mg, n = 6): 1 (16.7) n (%) | TEAE Gastrointestinal disorders (SOC), All grades (60 mg, n = 6): 4 (66.7) n (%) | TEAE Gastrointestinal disorders (SOC), Grade ≥ 3 (60 mg, n = 6): 2 (33.3) n (%) | TEAE General disorders and administration site conditions (SOC), All grades (60 mg, n = 6): 0 n (%) | TEAE General disorders and administration site conditions (SOC), Grade ≥ 3 (60 mg, n = 6): 0 n (%) | TEAE Hepatic function abnormal, All grades (60 mg, n = 6): 1 (16.7) n (%) | TEAE Hepatic function abnormal, Grade ≥ 3 (60 mg, n = 6): 1 (16.7) n (%) | TEAE Hepatobiliary disorders (SOC), All grades (60 mg, n = 6): 2 (33.3) n (%) | TEAE Hepatobiliary disorders (SOC), Grade ≥ 3 (60 mg, n = 6): 2 (33.3) n (%) | TEAE Herpes simplex, All grades (60 mg, n = 6): 0 n (%) | TEAE Herpes simplex, Grade ≥ 3 (60 mg, n = 6): 0 n (%) | TEAE Herpes zoster, All grades (60 mg, n = 6): 1 (16.7) n (%) | TEAE Herpes zoster, Grade ≥ 3 (60 mg, n = 6): 0 n (%) | TEAE Hypoesthesia, All grades (60 mg, n = 6): 0 n (%) | TEAE Hypoesthesia, Grade ≥ 3 (60 mg, n = 6): 0 n (%) | TEAE Hypogammaglobulinemia, All grades (60 mg, n = 6): 0 n (%) | TEAE Hypogammaglobulinemia, Grade ≥ 3 (60 mg, n = 6): 0 n (%) | TEAE Immune system disorders (SOC), All grades (60 mg, n = 6): 1 (16.7) n (%) | TEAE Immune system disorders (SOC), Grade ≥ 3 (60 mg, n = 6): 0 n (%)
